Results from patent US20030162783A1 (priority 1999, published 2003).

Columns and labels:
[1] = test system: Chronic Constriction Injury (CCI) rats, thermal hyperalgesia; assay: Test C: Neuropathic pain model (Chronic Constriction Injury), thermal hyperalgesia paw-withdrawal; assay type: in vivo; conditions: Rattus norvegicus; for inhibition in vivo at 15 mg/kg/day / inhibition in vivo at 30 mg/kg/day: oral t.i.d., read-out: Test C (% Inh.): percent decrease in hyperalgesia at the MED; for minimal effective dose: po, 120 h, orally three times daily for 5 days, read-out: Test C MED (minimum effective dose)
Description: Test C: Neuropathic Pain Model (Chronic Constriction Injury):
(Mean of vehicle group−Mean of compound group)/(Mean of vehicle group)×100

[2] = molecular target: T1, NMDA receptor glycine site (Rattus norvegicus, UniProt P35439); assay: Test A: Inhibition of binding of [3H]-MDL105,519 to brain membranes; conditions: [3H]MDL105,519 1.2 nM, brain membranes (rat and human membranes described; table does not say which)
T1 construct: brain membranes bearing the receptor; tissue Analytical Biological Services Inc; host or cells: rat brain membranes (cerebral cortex and hippocampus, male Sprague Dawley rats)
Description: Test A: Inhibition of Binding of [^3H]-MDL105,519:
Binding of compounds to the NMDA receptor glycine site may be assessed by measuring the ability of test compounds to inhibit the binding of tritiated MDL105,519 to brain membranes bearing the receptor.
Briefly, fresh brain tissue including cerebral cortex and hippocampus from male Sprague Dawley rats was homogenized in 0.32 M sucrose and centrifuged at low speed to separate cellular membranes from other cellular components. The membranes were then washed 3 times using deionized water, followed by treatment with 0.04% Triton X-100. Finally, membranes were washed six times in 50 mM Tris citrate buffer, pH 7.4, and frozen at −80° C. until use.
[^3H]MDL105,519 (72 Ci/mmol) was purchased from Amersham. Cold MDL105,519 was purchased from Sigma/RBI. […] On the day of the experiment, brain membranes were thawed at room temperature and suspended in 50 mM tris acetate buffer, pH 7.4 (“TAB”). Seventy-five micro grams per milliliter protein (by using the BioRad dye) were used for competition binding. The experiments were carried out using 96-well plates. […] Non specific binding was determined by using 100 μM of unlabeled MDL105,519. […] After incubation, unbound [^3H]MDL105,519 was removed by filtration onto GF/B Unifilter plates using a Packard harvester. Filters were washed four times with ice cold TAB (total of 1.2 mL buffer). The plates were dried overnight at room temperature and bound radioactivity was measured on a Packard TopCount after the addition of 45 μL per well of the MICROSCINT O.
Human brain membranes were obtained from Analytical Biological Services Inc., and assays were performed as described for rat membranes.
Data was analyzed using a Microsoft Excel spreadsheet and GraphPad Prizm software and potency of compounds is expressed as the Ki (nM).

[3] = test system: formalin-induced nociceptive behaviors in rats; assay: Test B: Formalin test (formalin-induced nociceptive behaviors, paw flinches); assay type: in vivo, rat; conditions: dosed three hours prior to formalin; for Test B First phase Dose (% Inh.): % inhibition of nociceptive response: first phase (0-5 min); for Test B Second phase Dose (% Inh.): % inhibition of nociceptive response: second phase (20-35 min)
Description: In the test, two distinctive phases of formalin-induced behaviors are observed. A first phase response, caused by acute nociception to the noxious chemical (formalin) injected into the paw, occurs between zero and five minutes. […] After the quiescent period a second phase response, caused by sensitization of the central neurons in the dorsal horn, occurs after 15 minutes and lasts up to 60 minutes. Sensitization of the central neurons in the spine augments a noxious afferent input and causes a stronger pain barrage to be transmitted to the brain. Therefore, inhibition of the second phase response indicates a central mechanism of drug action.
The procedure for the formalin test is as follows: male rats are placed in a plexiglass chamber and observed for 30-45 min. to observe their baseline activity. Animals are either pretreated with vehicle or with different doses of a test compound. Animals are dosed with vehicle or test compound three hours prior to injection of 0.05 mL of sterile 1% formalin under the dorsal skin of a hind paw. The number of paw flinches (responses) during the first phase (0-5 min.) and the second phase (20-35 min.) are scored and recorded. Flinch response is compared with the mean score of a saline control group and calculated as percentage inhibition. […] First phase responses may be inhibited by compounds that act peripherally and by compounds that act centrally.
Student's t-test was used for statistical analysis to determine the significance of compound effects. Data are reported as a dose that yielded a % inhibition of a response.

Structure (SMILES)	inhibition in vivo at 15 mg/kg/day [1] [%]	minimal effective dose [1] [mg/kg/day]	inhibition in vivo at 30 mg/kg/day [1] [%]	Ki [2] [nM]	other results
O=c1c2ccc(Cl)cc2[nH]c2c(O)nn(Cc3ccsc3)c(=O)c12 [Ex. 12, 7-Chloro-4-hydroxy-2-(thien-3-ylmethyl)-1,2,5,10-tetrahydropyridazino[4,5-b]quinoline-1,10-dione]	17	15	–	–	–
O=c1c2ccc(Cl)cc2[nH]c2c(O)nn(Cc3cc4ccccc4o3)c(=O)c12 [Ex. 4, 7-Chloro-4-hydroxy-2-benzo[d]furan-2-ylmethyl-1,2,5,10-tetrahydropyridazino[4,5-b]quinoline-1,10-dione]	–	30	44	–	–
CS(=O)(=O)O.O=c1c2ccc(Cl)cc2[nH]c2c(O)nn(Cc3cnccn3)c(=O)c12 [Ex. 6, 7-Chloro-4-hydroxy-2-(pyrazin-2-ylmethyl)-1,2,5,10-tetrahydropyridazino[4,5-b]quinoline-1,10-dione methanesulfonate]	–	30	64	–	–
O=c1c2ccc(Cl)cc2[nH]c2c(O)nn(Cc3cccs3)c(=O)c12 [Ex. 11, 7-Chloro-4-hydroxy-2-(thien-2-ylmethyl)-1,2,5,10-tetrahydropyridazino[4,5-b]quinoline-1,10dione]	-17	15	–	–	–
O=c1c2ccc(Cl)cc2[nH]c2c(O)nn(Cc3ccnc4ccccc34)c(=O)c12 [Ex. 5, 7-Chloro-4-hydroxy-2-(quinolin-4-ylmethyl)-1,2,5,10-tetrahydropyridazino[4,5-b]quinoline-1,10-dione]	–	–	–	371	–
CS(=O)(=O)O.O=c1c2ccc(Cl)cc2[nH]c2c(O)nn(Cc3ccncc3)c(=O)c12 [Ex. 1, 7-Chloro-4-hydroxy-2-(4-pyridylmethyl)-1,2,5,10-tetrahydropyridazino[4,5-b]quinoline-1,10-dione methanesulfonate]	–	30	71	–	Test B First phase Dose (% Inh.): % inhibition of nociceptive response ([3]; dose 70 (dose unit not given)): 70 (52%); Test B Second phase Dose (% Inh.): % inhibition of nociceptive response ([3]; dose 70 (dose unit not given)): 70 (57%)
CS(=O)(=O)O.O=c1c2ccc(Cl)cc2[nH]c2c(O)nn(Cc3cccnc3)c(=O)c12 [Ex. 2, 7-Chloro-4-hydroxy-2-(3-pyridylmethyl)-1,2,5,10-tetrahydropyridazino[4,5-b]quinoline-1,10-dione Methanesulfonate]	–	30	59	–	Test B First phase Dose (% Inh.): % inhibition of nociceptive response ([3]; dose 200 (dose unit not given)): 200 (74%); Test B Second phase Dose (% Inh.): % inhibition of nociceptive response ([3]; dose 200 (dose unit not given)): 200 (71%)
O=c1c2ccc(Cl)cc2[nH]c2c(O)nn(Cc3cc4ccccc4s3)c(=O)c12 [Ex. 13, 7-Chloro-4-hydroxy-2-(benzo[b]thien-2-ylmethyl)-1,2,5,10-tetrahydropyridazino[4,5-b]quinoline-1,10-dione]	1	15	–	–	–
O=c1c2ccc(Cl)cc2[nH]c2c(O)nn(Cc3ccco3)c(=O)c12 [Ex. 9, 7-Chloro-4hydroxy-2-(furan-2-ylmethyl)-1 2,5,10-tetrahydropyridazino[4,5-b]quinoline-1,10-dione]	77	15	–	61	Test B First phase Dose (% Inh.): % inhibition of nociceptive response ([3]; dose 200 (dose unit not given)): 200 (56%); Test B Second phase Dose (% Inh.): % inhibition of nociceptive response ([3]; dose 200 (dose unit not given)): 200 (46%); melting point: > 265 °C
O=c1c2ccc(Cl)cc2[nH]c2c(O)nn(Cc3ccncn3)c(=O)c12	–	–	–	513	–
O=c1c2ccc(Cl)cc2[nH]c2c(O)nn(Cc3ncc[nH]3)c(=O)c12 [Ex. 15, 7-Chloro-4-hydroxy-2-(imidazol-2-ylmethyl)-1,2,5,10-tetrahydropyridazino[4,5-b]quinoline-1,10-dione]	–	–	–	103	–
